Results published in US7314858B2, “Retrocyclins: antiviral and antimicrobial peptides” (priority 2001, dated 2008).
In brackets after ≈: the same amount, converted by molar mass. Entries after “also recorded” stand apart in the source; their conditions may differ. Like-named read-outs stand apart in the source and are kept apart here. Where a SMILES comes first, the peptide text is derived from it. Bridges are numbered along the chain shown (N, C = ends).

What was measured:
primary HIV-1 isolates = settings: for IC50: read-out: mean IC50; for IC50 / mean IC50: seven subtype B strains
From the text: Viral isolates. Primary HIV-1 isolates were obtained from Institutional Review Board-approved Centers for Disease Control and Prevention (CDC) Studies or from the National Institutes of Health Research and Reference Reagent Program and World Health Organization collaborative network. Detailed characteristics of the CDC isolates, including subtype determination based on the envelope region, and co-receptor usage using GHOST cell lines have been described elsewhere. For viruses obtained from the NIH Research and Reference Reagent Program, the reported subtype and co-receptor data were used as supplied. Viral stocks were generated by infecting CD8-depleted normal human peripheral blood mononuclear cells. After filtration through 0.22-μm filters, aliquots of the stocks were stored at −70° C. until used.
Reporter gene-based viral replication assay. JC53-BL cells, an HIV-1 reporter cell line derived from HeLa cells that expresses high levels of CD4 and the HIV co-receptors CXCR4 and CCR5, were a gift of Tranzyme Inc. (Birmingham, Ala.). The JC53-BL cells contain cassettes for luciferase and β-galactosidase, each driven by the HIV-1 LTR. HIV infection (tat production) can be detected either by measuring luciferase activity or by counting blue foci after staining the cells with “X-Gal” (5-Bromo-4-chloro-3-indolyl β-D-galactopyranoside), as described elsewhere in detail. The JC53-BL cells were maintained in Dulbecco's modified Eagle medium supplemented with 10% fetal calf serum. (HyClone, Logan, Utah), 2 mM glutamine (Gibco), 100 units per ml penicillin G and 100 μg/ml streptomycin (GIBCO™, Invitrogen Corp., San Diego, Calif.). Viral titers were determined by adding serial dilutions of the virus stocks, in triplicate, to wells containing 20,000 JC53-BL cells, after supplementing the above medium with 40 μg/ml DEAE (diethylaminoethyl)-dextran. After a 48 hour incubation at 37° C. in 5% CO2, the cells were fixed and stained for β galactosidase, and the blue foci were counted with a light microscope. Multiplicity of infection (MOI) values were taken from the infectious unit data.
In vitro infections were carried out in the presence or absence of θ-defensin peptides. Briefly, JC53-BL cells were harvested from T-150 flasks approximately 18 hours prior to starting the assay with 0.1 mM EDTA in 0.017 M PBS, pH 7.4. The cells were washed and transferred to sterile white 96-well plates (Thermo Labsystems, Franklin, Mass.) at a density of 20,000 cells in 50 μl of medium. […] After this 3-hour preincubation with peptides, viruses were added in media containing 40 μg/ml DEAE-dextran. The final volume was 200 μl per well, and the multiplicity of infection (viruses/cell) ranged from 0.009 to 0.65. After the plates had incubated at 37° C. in 5% CO2 for 48 hours, luciferase activity was measured with the Steady-Glo Luciferase Assay System (Promega, Madison, Wis.), using the manufacturer's lysis protocol. Relative light intensity was measured with a Tecan luminometer running Magellan software (Tecan, Research Triangle Park, N.C.) and reported as relative light units (RLU). Each plate contained three sets of quadruplicate controls: media-only (background), virus-only (peptide-free), and recombinant luciferase. Samples were run in duplicate and the % inhibition was calculated from the mean values using the formula: % Inhibition=1−(average RLU peptide+virus wells/average RLU virus only wells)×100.
Fifty-percent inhibitory concentration values (IC50) were calculated using the predicted exponential growth function in Microsoft Excel, which uses known x-y values to estimate a given x value (in this case concentration of peptide) that would correspond to a given y value (in this case IC50). Statistical comparisons were by paired t-tests, unless otherwise noted.

HIV-1 strain JR-CSF = assay: HIV-1 JR-CSF infection of CD4+ PBMC, p24 antigen ELISA; assay type: cell-based; settings: JR-CSF (R5), peptide 10-20 μg/ml
Experimental: FIG. 5A-C. Anti-HIV-1 activity of retrocyclin. Two strains of HIV-1 and two types of human target cells were used. The IIIB strain is T-cell tropic (X4) and utilizes the CXCR4 co-receptor for entry; the JR-CSF strain is M-tropic (R5) and uses CCR5 for entry. PBMC signifies CD4^+-selected peripheral blood mononuclear cells. […] (A) Two concentrations of retrocyclin (2 μg/ml, 20 μg/ml), 20 μg/ml of the Rhesus circular defensin “RTD-1”, and 20 μg/ml of a horseshoe crab-derived peptide “T140”, reported to only prevent X4 infections, were tested in antiviral assays of against strain IIIB in H9 cells (n=2-6 per peptide; error bars indicate SEM). (B) To confirm our results with primary human cells, similar assays were performed utilizing IIIB virus and CD4^+ PBMC or (C) JR-CSF virus and CD4^+ PBMC. Peptides were not cytotoxic at indicated concentrations, measured by trypan blue exclusion. Average of duplicate experiments are reported for studies with PBMCs. Assay sensitivity=10 pg/ml.
Either HIV-1-permissive H9 cells were used as targets, or primary CD4^+ lymphocytes from HIV-1-seronegative donors generated from freshly purified peripheral blood mononuclear cells (PBMC) stimulated with a CD3-CD8 bispecific monoclonal antibody. After approximately 7 days, when 98% of these cells co-expressed CD3 and CD4, they were infected with HIV-1 with or without retrocyclin or other test peptide. These cells were maintained in RPMI containing 10% FCS supplemented with 2 mM glutamine, 100 U of penicillin/ml, 10 μg of streptomycin/ml, and 50 U of interleukin 2/ml (R10-50 media).
The p24 assay results shown in FIG. 9 are on a logarithmic scale. A horizontal reference line that passes through 100 on the ordinate scale corresponds to […] of p24 antigen. Results from 3 experiments (each performed with PBMC from a different donor) are shown.

[1] = isolate 92BR023, subtype C/B, R5
[2] = isolate 92HT593, Haiti, subtype B, X4
[3] = isolate 92RW009, subtype C/A, R5/X4
[4] = isolate 92UG005, Uganda, subtype D, R5
[5] = isolate 93TH060, Thailand, CRF01-AE, R5
[6] = isolate 93UG053, Uganda, subtype D, R5
[7] = isolate 93US151, USA, subtype B, X4
[8] = isolate 98CN009, China, subtype C, R5
[9] = isolate 98TZ017, Tanzania, subtype C, R5
[10] = isolate 5157-1326, USA, subtype B, R5
[11] = isolate 192431, Nigeria, subtype C, X4
[12] = isolate 193358, Nigeria, subtype C, R5
[13] = isolate 196531, Cameroon, subtype A, R5
[14] = isolate 196554, Senegal, subtype A, R5
[15] = isolate HM14, Thailand, CRF01-AE, X4

SMILES	IC50 (mean±SEM, n=8) (primary HIV-1 isolates) [µg/mL]	IC50 Concentrations (primary HIV-1 isolates; [1]) [µg/mL]	IC50 Concentrations (primary HIV-1 isolates; [2]) [µg/mL]	IC50 Concentrations (primary HIV-1 isolates; [3]) [µg/mL]	IC50 Concentrations (primary HIV-1 isolates; [4]) [µg/mL]	IC50 Concentrations (primary HIV-1 isolates; [5]) [µg/mL]	IC50 Concentrations (primary HIV-1 isolates; [6]) [µg/mL]	IC50 Concentrations (primary HIV-1 isolates; [7]) [µg/mL]	IC50 Concentrations (primary HIV-1 isolates; [8]) [µg/mL]	IC50 Concentrations (primary HIV-1 isolates; [9]) [µg/mL]	IC50 Concentrations (primary HIV-1 isolates; [10]) [µg/mL]	IC50 Concentrations (primary HIV-1 isolates; [11]) [µg/mL]	IC50 Concentrations (primary HIV-1 isolates; [12]) [µg/mL]	IC50 Concentrations (primary HIV-1 isolates; [13]) [µg/mL]	IC50 Concentrations (primary HIV-1 isolates; [14]) [µg/mL]	IC50 Concentrations (primary HIV-1 isolates; [15]) [µg/mL]	IC50 (primary HIV-1 isolates) [µM]	mean IC50 (primary HIV-1 isolates)	inhibition of HIV-1 replication (p24) (HIV-1 strain JR-CSF)	other results
CC[C@H](C)[C@@H]1NC(=O)CNC(=O)[C@H](CCCNC(=N)N)NC(=O)CNC(=O)[C@@H]2CSSC[C@H](NC1=O)C(=O)N[C@@H](CCCNC(=N)N)C(=O)N[C@H]1CSSC[C@H](NC(=O)[C@H](CCCNC(=N)N)NC(=O)[C@@H]3CSSC[C@H](NC(=O)[C@H]([C@@H](C)CC)NC1=O)C(=O)NCC(=O)N[C@@H](CCCNC(=N)N)C(=O)NCC(=O)N[C@@H]([C@@H](C)CC)C(=O)N3)C(=O)N[C@@H]([C@@H](C)CC)C(=O)N2 [RC-100, Retrocyclin] (cyclo(GICRCICGRGICRCICGR); disulfide 3-16, 5-14, 7-12)	7.79 ± 1.16 (≈ 4.06 µM)	4.71 (≈ 2.46 µM)	5.73 (≈ 2.99 µM)	8.72 (≈ 4.55 µM)	5.18 (≈ 2.7 µM)	7.39 (≈ 3.85 µM)	6.38 (≈ 3.33 µM)	1.69 (≈ 0.881 µM)	>10	>10	4.64 (≈ 2.42 µM)	5.18 (≈ 2.7 µM)	>10	>10	5.73 (≈ 2.99 µM)	3.09 (≈ 1.61 µM)	~2.6	approximately 5.0 μg/ml	complete suppression; also recorded: uniformly protective	IC50 Concentrations (primary HIV-1 isolates; isolate 92RW024, subtype D/A, R5): 7.78 µg/mL (≈ 4.06 µM); IC50 Concentrations (primary HIV-1 isolates; isolate 92UG037, Uganda, subtype A, R5): 1.44 µg/mL (≈ 0.751 µM); IC50 Concentrations (primary HIV-1 isolates; isolate 92US714, USA, subtype B, R5): >10 µg/mL; IC50 Concentrations (primary HIV-1 isolates; isolate 92US727, USA, subtype B, R5): 6.46 µg/mL (≈ 3.37 µM); IC50 Concentrations (primary HIV-1 isolates; isolate 93UG059, subtype A/D, X4): 6.65 µg/mL (≈ 3.47 µM); IC50 Concentrations (primary HIV-1 isolates; isolate 94UG114, Uganda, subtype D, R5): 3.69 µg/mL (≈ 1.92 µM); IC50 Concentrations (primary HIV-1 isolates; isolate 5148-1382, USA, subtype B, R5): 5.71 µg/mL (≈ 2.98 µM); IC50 Concentrations (primary HIV-1 isolates; isolate 5157-35097, USA, subtype B, R5X4): 6.29 µg/mL (≈ 3.28 µM); IC50 Concentrations (primary HIV-1 isolates; isolate 193317, Nigeria, subtype A, X4): >10 µg/mL; IC50 Concentrations (primary HIV-1 isolates; isolate RU132, Russia, subtype G, R5): 5.27 µg/mL (≈ 2.75 µM); IC50 Concentrations (primary HIV-1 isolates; isolate RU570, subtype G, R5): 8.63 µg/mL (≈ 4.5 µM)
CC[C@H](C)[C@@H]1NC(=O)CNC(=O)[C@H](CCCCN)NC(=O)CNC(=O)[C@@H]2CSSC[C@H](NC1=O)C(=O)N[C@@H](CCCNC(=N)N)C(=O)N[C@H]1CSSC[C@H](NC(=O)[C@H](CCCNC(=N)N)NC(=O)[C@@H]3CSSC[C@H](NC(=O)[C@H]([C@@H](C)CC)NC1=O)C(=O)NCC(=O)N[C@@H](CCCNC(=N)N)C(=O)NCC(=O)N[C@@H]([C@@H](C)CC)C(=O)N3)C(=O)N[C@@H]([C@@H](C)CC)C(=O)N2 [RC-101, R9K-Retrocyclin]	2.93 ± 0.95 (≈ 1.55 µM)	3.04 (≈ 1.61 µM)	0.76 (≈ 0.402 µM)	2.72 (≈ 1.44 µM)	1 (≈ 0.529 µM)	2.15 (≈ 1.14 µM)	1.54 (≈ 0.815 µM)	0.49 (≈ 0.259 µM)	8.53 (≈ 4.51 µM)	4.87 (≈ 2.58 µM)	3.59 (≈ 1.9 µM)	0.54 (≈ 0.286 µM)	2.75 (≈ 1.45 µM)	2.65 (≈ 1.4 µM)	0.51 (≈ 0.27 µM)	0.84 (≈ 0.444 µM)	< 0.66	< 1.25 µg/mL	as active as retrocyclin	protective activity compared with retrocyclin-1 (primary HIV-1 isolates): more active than retrocyclin-1; protective activity compared with retrocyclin-1 (primary HIV-1 isolates; subtype D strains, 1.25, 2.5, 5 and 10 μg/ml): more active than retrocyclin-1; protective activity compared with retrocyclin-1 (primary HIV-1 isolates; subtype G and various recombinant viruses): greater protection than retrocyclin-1
